How the values were obtained:
Experiment in all cases: biochemical
Design in all cases: KINOMEscan scanMAX active site-directed competition binding assay, percent of control, 468 kinases
Conditions in all cases: competition binding, percent of control
ADCK3 = biological target: T1, ADCK3 (Homo sapiens, UniProt Q8NI60)
T1 construct: gene COQ8A
Outline: (§1)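 KINOMEscan active site-directed competition binding assay against 468 human kinases with 100 μM S-carvone. Binding expressed as % of control, with 35% of control as the inhibition threshold.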

ALK = ALK (Homo sapiens, UniProt Q9UM73)
ALK, sequence (Q9UM73 whole entry): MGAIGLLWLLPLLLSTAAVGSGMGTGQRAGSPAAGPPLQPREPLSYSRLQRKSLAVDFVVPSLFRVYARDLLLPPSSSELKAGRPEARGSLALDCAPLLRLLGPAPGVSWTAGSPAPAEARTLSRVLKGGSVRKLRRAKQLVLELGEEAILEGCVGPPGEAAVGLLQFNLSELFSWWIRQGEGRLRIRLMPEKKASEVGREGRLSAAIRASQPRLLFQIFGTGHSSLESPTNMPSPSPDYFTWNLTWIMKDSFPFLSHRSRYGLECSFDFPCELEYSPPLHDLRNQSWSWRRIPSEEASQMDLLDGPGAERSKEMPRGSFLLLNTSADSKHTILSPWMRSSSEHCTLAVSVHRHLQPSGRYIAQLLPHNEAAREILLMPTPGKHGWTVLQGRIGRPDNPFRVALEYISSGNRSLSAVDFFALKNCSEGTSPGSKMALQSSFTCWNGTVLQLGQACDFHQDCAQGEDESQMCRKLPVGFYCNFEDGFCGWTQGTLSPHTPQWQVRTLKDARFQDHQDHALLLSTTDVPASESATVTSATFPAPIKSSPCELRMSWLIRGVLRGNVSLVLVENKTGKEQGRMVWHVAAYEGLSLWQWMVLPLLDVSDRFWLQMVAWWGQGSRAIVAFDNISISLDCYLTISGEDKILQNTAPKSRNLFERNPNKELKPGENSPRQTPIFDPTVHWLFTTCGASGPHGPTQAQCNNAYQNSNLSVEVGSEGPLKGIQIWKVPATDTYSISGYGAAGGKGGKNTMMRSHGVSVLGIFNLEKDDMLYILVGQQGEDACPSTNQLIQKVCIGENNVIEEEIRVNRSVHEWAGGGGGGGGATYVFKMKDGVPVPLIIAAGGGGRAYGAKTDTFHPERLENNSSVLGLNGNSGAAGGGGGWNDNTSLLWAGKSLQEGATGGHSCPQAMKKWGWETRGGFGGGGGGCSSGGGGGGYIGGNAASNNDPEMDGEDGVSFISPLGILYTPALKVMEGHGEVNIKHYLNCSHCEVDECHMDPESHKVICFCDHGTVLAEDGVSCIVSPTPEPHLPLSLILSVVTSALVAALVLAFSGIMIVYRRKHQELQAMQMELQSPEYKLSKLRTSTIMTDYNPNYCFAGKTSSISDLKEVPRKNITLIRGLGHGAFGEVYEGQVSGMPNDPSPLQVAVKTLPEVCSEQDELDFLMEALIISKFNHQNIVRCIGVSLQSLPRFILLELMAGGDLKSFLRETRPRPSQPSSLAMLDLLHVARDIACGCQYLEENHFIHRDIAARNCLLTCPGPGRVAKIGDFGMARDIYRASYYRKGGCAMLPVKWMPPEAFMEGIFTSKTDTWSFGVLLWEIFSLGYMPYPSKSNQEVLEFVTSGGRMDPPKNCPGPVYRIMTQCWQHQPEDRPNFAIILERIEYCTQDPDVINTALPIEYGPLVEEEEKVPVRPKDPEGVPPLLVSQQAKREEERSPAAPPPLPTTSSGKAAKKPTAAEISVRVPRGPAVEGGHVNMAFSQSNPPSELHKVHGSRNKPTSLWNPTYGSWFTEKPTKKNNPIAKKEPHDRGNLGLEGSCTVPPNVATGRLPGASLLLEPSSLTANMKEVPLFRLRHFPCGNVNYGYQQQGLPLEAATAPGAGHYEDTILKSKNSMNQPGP
Outline: as §1

CLK3 = CLK3 (Homo sapiens, UniProt P49761)
CLK3, sequence (P49761 whole entry): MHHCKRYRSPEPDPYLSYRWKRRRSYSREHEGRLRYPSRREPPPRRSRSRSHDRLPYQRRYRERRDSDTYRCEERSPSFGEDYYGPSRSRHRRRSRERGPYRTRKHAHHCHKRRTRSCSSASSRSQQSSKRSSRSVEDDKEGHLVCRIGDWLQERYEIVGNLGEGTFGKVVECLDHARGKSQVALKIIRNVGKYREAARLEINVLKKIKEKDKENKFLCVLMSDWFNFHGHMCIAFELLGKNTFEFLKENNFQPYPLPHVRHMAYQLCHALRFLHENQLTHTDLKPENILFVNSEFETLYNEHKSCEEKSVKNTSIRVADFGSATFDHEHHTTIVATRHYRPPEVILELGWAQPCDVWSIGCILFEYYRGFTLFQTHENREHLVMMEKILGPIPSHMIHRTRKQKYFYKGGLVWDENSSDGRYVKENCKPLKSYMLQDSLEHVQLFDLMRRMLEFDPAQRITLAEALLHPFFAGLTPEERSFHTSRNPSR
Outline: as §1

CSNK1D = CSNK1D (Homo sapiens, UniProt P48730)
Outline: as §1

CSNK1G3 = CSNK1G3 (Homo sapiens, UniProt Q9Y6M4)
Outline: as §1

CSNK2A1 = CSNK2A1 (Homo sapiens, UniProt P68400)
Outline: as §1

EPHA2 = EPHA2 (Homo sapiens, UniProt P29317)
Outline: as §1

EPHB4 = EPHB4 (Homo sapiens, UniProt P54760)
Outline: as §1

FLT3(ITD,D835V) = FLT3(ITD,D835V) (Homo sapiens, UniProt P36888, D835V/ITD)
Outline: as §1

FRK = FRK (Homo sapiens, UniProt P42685)
FRK, sequence (P42685 whole entry): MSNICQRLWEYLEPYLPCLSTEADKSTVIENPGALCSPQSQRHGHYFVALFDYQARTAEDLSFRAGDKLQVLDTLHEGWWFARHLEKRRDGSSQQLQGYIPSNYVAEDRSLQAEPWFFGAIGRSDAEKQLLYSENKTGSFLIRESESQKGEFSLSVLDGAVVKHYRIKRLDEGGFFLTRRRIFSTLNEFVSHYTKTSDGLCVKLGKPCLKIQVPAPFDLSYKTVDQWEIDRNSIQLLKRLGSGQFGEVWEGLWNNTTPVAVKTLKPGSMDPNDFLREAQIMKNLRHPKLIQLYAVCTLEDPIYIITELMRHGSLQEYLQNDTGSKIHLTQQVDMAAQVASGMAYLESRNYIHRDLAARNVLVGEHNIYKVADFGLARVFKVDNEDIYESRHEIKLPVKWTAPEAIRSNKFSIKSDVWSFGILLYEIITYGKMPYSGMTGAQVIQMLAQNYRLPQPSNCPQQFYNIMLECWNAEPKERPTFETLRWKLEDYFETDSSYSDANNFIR
Outline: as §1

MET(M1250T) = MET(M1250T) (Homo sapiens, UniProt P08581, M1250T)
Outline: as §1

MLK1 = biological target: T2, MLK1 (Homo sapiens, UniProt P80192)
T2 construct: gene MAP3K9
T2 sequence (P80192 whole entry): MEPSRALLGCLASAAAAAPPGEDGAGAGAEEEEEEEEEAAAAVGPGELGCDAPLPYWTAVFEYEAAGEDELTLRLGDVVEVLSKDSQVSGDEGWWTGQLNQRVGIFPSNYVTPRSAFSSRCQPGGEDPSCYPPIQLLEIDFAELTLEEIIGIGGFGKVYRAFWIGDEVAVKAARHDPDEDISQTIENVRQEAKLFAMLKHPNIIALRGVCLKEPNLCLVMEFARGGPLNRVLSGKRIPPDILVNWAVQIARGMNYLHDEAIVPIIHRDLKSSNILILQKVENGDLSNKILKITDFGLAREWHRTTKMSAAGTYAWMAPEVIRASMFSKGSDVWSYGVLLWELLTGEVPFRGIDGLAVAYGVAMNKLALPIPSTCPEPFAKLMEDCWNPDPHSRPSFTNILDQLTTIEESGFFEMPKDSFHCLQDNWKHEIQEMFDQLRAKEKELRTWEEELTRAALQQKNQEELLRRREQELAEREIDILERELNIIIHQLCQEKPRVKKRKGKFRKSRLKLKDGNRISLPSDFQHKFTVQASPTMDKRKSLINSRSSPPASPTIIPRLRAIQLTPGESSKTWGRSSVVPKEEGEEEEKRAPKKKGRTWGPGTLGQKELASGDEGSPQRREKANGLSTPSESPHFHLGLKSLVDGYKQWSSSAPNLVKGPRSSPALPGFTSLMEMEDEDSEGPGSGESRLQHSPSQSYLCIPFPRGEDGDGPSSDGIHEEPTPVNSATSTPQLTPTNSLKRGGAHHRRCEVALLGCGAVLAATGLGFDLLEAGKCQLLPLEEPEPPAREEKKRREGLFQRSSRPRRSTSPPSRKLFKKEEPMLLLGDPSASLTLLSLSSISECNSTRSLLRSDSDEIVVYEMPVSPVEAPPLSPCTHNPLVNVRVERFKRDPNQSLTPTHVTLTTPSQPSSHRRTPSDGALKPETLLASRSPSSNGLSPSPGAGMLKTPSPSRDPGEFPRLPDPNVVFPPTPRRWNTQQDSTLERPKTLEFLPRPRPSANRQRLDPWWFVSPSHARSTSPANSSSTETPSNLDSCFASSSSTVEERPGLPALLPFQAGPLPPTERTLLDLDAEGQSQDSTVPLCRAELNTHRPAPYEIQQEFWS
Outline: as §1

PCTK3 = biological target: T3, PCTK3 (Homo sapiens, UniProt Q07002)
T3 construct: gene CDK18
Outline: as §1

PFTK1 = biological target: T4, PFTK1 (Homo sapiens, UniProt O94921)
T4 construct: gene CDK14
Outline: as §1

PRKCH = PRKCH (Homo sapiens, UniProt P24723)
Outline: as §1

RAF1 = RAF1 (Homo sapiens, UniProt P04049)
Outline: as §1

RET = RET (Homo sapiens, UniProt P07949)
Outline: as §1

RET(M918T) = RET(M918T) (Homo sapiens, UniProt P07949, M918T)
Outline: as §1

SNARK = biological target: T5, SNARK (Homo sapiens, UniProt Q9H093)
T5 construct: gene NUAK2
Outline: as §1

YES = biological target: T6, YES (Homo sapiens, UniProt P07947)
T6 construct: gene YES1
Outline: as §1

YSK4 = biological target: T7, YSK4 (Homo sapiens, UniProt Q56UN5)
T7 construct: gene MAP3K19
T7 sequence (Q56UN5 whole entry): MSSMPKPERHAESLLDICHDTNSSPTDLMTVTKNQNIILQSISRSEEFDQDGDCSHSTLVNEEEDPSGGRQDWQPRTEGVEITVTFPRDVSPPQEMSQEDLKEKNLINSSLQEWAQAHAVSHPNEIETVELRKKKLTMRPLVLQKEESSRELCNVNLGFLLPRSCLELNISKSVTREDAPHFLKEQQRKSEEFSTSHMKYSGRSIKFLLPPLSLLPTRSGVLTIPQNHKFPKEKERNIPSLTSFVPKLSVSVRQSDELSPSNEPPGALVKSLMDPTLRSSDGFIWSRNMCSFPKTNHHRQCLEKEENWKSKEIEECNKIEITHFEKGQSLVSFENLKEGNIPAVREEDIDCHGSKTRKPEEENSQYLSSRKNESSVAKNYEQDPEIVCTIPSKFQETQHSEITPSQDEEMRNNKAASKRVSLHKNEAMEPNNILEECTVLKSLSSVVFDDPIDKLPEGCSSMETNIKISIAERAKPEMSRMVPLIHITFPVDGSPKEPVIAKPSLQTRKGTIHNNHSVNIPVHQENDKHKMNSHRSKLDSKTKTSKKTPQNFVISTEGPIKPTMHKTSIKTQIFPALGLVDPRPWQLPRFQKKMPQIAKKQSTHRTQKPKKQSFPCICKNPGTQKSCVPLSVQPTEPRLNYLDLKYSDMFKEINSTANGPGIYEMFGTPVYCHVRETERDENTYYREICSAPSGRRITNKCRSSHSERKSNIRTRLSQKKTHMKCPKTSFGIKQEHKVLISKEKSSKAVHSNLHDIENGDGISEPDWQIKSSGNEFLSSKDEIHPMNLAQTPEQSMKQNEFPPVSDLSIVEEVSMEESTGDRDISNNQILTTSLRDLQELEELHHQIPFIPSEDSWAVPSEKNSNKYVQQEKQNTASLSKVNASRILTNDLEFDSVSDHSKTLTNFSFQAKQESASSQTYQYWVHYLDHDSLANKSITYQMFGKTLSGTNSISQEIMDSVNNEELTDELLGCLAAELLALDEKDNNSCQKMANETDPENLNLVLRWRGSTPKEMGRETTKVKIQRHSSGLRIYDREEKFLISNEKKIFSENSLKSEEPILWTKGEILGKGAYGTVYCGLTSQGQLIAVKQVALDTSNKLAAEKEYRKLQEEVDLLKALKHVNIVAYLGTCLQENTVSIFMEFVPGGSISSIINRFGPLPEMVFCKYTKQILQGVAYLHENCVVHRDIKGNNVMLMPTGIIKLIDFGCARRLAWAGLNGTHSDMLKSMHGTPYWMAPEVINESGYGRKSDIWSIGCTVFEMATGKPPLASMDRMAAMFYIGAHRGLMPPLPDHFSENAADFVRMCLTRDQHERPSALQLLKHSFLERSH
Outline: as §1

For `C=C(C)[C@H]1CC=C(C)C(=O)C1` [S-carvone], the remaining binding at 100 µM (ADCK3) was 66%, the remaining binding at 100 µM (ALK) was 73% and the remaining binding at 100 µM (CLK3) was 99%. For the same compound, the remaining binding at 100 µM (CSNK1D) was 68%, the remaining binding at 100 µM (CSNK1G3) was 100% and the remaining binding at 100 µM (CSNK2A1) was 71%. It also gave a remaining binding at 100 µM (EPHA2) of 71%, a remaining binding at 100 µM (EPHB4) of 68% and a remaining binding at 100 µM (FLT3(ITD,D835V)) of 85%. For the same compound, the remaining binding at 100 µM (FRK) was 83%, the remaining binding at 100 µM (MET(M1250T)) was 73% and the remaining binding at 100 µM (MLK1) was 92%. It also gave a remaining binding at 100 µM (PCTK3) of 85%, a remaining binding at 100 µM (PFTK1) of 93% and a remaining binding at 100 µM (PRKCH) of 73%. The remaining binding at 100 µM (RAF1) was 99%, the remaining binding at 100 µM (RET) was 82% and the remaining binding at 100 µM (RET(M918T)) was 93%. It also gave a remaining binding at 100 µM (SNARK) of 81%, a remaining binding at 100 µM (YES) of 84% and a remaining binding at 100 µM (YSK4) of 61%.
